Reference: patent publication US20250262214A1, “INTERMITTENT DOSING REGIMEN FOR AZENOSERTIB IN TREATING CANCER” (Zeno Management, Inc., priority 2022, published 2025)
Entries after “also recorded” stand apart in the source; their conditions may differ. Where two headings read alike, the source gives them in different places.

Tests used:
[1] = test system: MDA-MB-468 triple negative breast cancer tumor model; assay: MDA-MB-468 triple negative breast cancer tumor model, tumor growth inhibition; assay type: in vivo; settings: Azenosertib alone, 60 mg/kg
Protocol: In vivo exploration of dose and schedule of Azenosertib and PARPi (niraparib, talazoparib) including exploration of alternating dosing was evaluated.

Wee1 = target: T1, Wee1 (Homo sapiens, UniProt P30291); assay: PK/PD correlation, Wee1 target engagement (p-CDK1 in skin biopsies); assay type: in vivo
T1 construct: from tissue; host or cells: skin biopsies of treated subjects
Description: CDK1 phosphorylation (pCDK-1) is mediated by Wee1. It is contemplated that Wee1 inhibition by Azenosertib results in pCDK1 inhibition.

[2] = test system: breast ductal carcinoma HCC1569; assay: Breast ductal carcinoma HCC1569 model, tumor volume; assay type: in vivo, human
Protocol: In an exemplary breast ductal carcinoma HCC1569 model, Azenosertib was administered at a dose of about 100 mg/kg at intermittent dosing regimen of 3 cycles of 4 days on/3 days off (4/3) and 3 days on/4 days off (3/4) and compared with a lower continuous dose (e.g., 60 mg/kg). Tumor volume change was plotted in FIG. 1G and corresponding change in body weight in FIG. 1H until about 24 days post-initiation of treatment.

[3] = test system: human ovarian cancer SKOV3; assay: Human ovarian cancer SKOV3 animal model, tumor volume; assay type: in vivo; settings: 80 mg/kg 3 cycles 5 days on/2 days off vs continuous 60 mg/kg, 21 days
Protocol: In an exemplary human ovarian cancer SKOV3 animal model, Azenosertib was administered at a continuous dose of 60 mg/kg or at an intermittent dosing of 80 mg/kg at 3 cycles of 5 days on/2 days off (5/2).

[4] = test system: non-small cell lung carcinoma (NSCLC) A427; assay: Non-small cell lung carcinoma (NSCLC) A427 model, tumor volume and body weight; assay type: in vivo, human
Protocol: In an exemplary non-small cell lung carcinoma (NSCLC) A427 model, Azenosertib was administered at a higher intermittent dose than a corresponding lower continuous dose. For example, Azenosertib was administered at 56 mg/kg in 4 dosing cycles of 5 days on/2 days off (5/2) and compared with a lower continuous dose of 40 mg/kg. Similarly, 112 mg/kg of Azenosertib in 4 dosing cycles of 5 days on/2 days off was compared with a lower continuous dose of 80 mg/kg.
The tumor volume was measured (FIG. 1C) as well as body weight (FIG. 1D) for 28 days post initiation of treatment.
In an exemplary non-small cell lung carcinoma (NSCLC) A427 model, Azenosertib was administered at a higher intermittent dose than a corresponding lower continuous dose. For example, Azenosertib was administered at 100 mg/kg in 4 dosing cycles of 4 days on/3 days off (4/3) and compared with a lower continuous dose of 60 mg/kg.
Change in tumor volume over 25 days post tumor initiation is shown in FIG. 1E, while corresponding change in body weight during treatment is shown in FIG. 1F.

[5] = Clinical exposure (plasma PK) with continuous and intermittent 5/2 dosing; assay type: in vivo, human; settings: for Cmax / Tmax / AUC: human, plasma, oral; for AUC: read-out: AUC24
Protocol: This example illustrates the clinical exposure achieved with a continuous and an intermittent 5 days on/2 days off (5/2) dosing regimen. A comparison is also made between a once daily dosing regimen and a twice daily dosing regimen. In some embodiments, Azenosertib was administered with food and/or antiemetic agents.
The results are shown as follows: FIG. 5A is a graph of Azenosertib plasma concentration from subjects receiving a 5/2 350 mg once daily or 175 mg twice daily on day 1, cycle 1. FIG. 5B is a graph of Azenosertib plasma concentration from subjects receiving a 5/2 350 mg once daily or 175 mg twice daily on day 11/12, cycle 1. FIG. 5C is a graph of Azenosertib plasma concentration from subjects receiving a continuous dosing regimen relative to subjects receiving a 5/2 intermittent 350 mg once daily dosing regimen on day 1, cycle 1. FIG. 5D is a graph of Azenosertib plasma concentration from subjects receiving a continuous dosing regimen relative to subjects receiving a 5/2 intermittent 350 mg once daily dosing regimen on day 11/12 or 15 of cycle 1. FIG. 5E is a graph of Azenosertib plasma concentration from subjects receiving a continuous dosing regimen relative to subjects receiving a 5/2 intermittent 175 mg twice daily dosing regimen on day 1, cycle 1. FIG. 5F is a graph of Azenosertib plasma concentration from subjects receiving a continuous dosing regimen relative to subjects receiving a 5/2 intermittent 175 mg twice daily dosing regimen on day 11/12 or 15 of cycle 1.

[6] = 175 mg, 175 twice daily, 5/2, steady state (Day 12/11)
[7] = 175 mg, 175 twice daily, Continuous, mean steady state (Day 12/11)
[8] = 300 mg, 300 once daily, Continuous, mean steady state (Day 12/11)
[9] = 350 mg, 350 once daily, 5/2, mean steady state (Day 12/11)
[10] = 350 mg, 350 once daily, Continuous, mean steady state (Day 12/11)

T1 sequence (P30291 whole entry): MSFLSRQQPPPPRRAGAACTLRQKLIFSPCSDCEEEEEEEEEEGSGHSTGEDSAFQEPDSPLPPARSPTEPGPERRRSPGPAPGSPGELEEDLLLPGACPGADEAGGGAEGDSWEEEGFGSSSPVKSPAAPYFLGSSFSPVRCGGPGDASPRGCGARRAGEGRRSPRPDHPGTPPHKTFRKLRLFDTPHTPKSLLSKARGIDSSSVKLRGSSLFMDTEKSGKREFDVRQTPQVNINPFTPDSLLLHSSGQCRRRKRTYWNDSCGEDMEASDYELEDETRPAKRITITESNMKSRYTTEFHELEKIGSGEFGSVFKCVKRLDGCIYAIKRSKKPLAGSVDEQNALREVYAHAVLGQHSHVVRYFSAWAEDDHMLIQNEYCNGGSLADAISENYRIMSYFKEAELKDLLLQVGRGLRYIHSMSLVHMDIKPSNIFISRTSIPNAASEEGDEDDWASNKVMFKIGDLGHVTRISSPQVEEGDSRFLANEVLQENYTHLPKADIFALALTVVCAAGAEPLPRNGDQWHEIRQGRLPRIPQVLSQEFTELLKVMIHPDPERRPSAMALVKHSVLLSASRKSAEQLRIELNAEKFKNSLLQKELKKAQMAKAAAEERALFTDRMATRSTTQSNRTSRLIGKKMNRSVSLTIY

decrease of p-CDK1 levels (Wee1; dose of greater than about 300 mg once daily): at least 50% | p-CDK1 levels in skin biopsies following treatment relative to baseline (Wee1; skin biopsies): decreases in p-CDK1 levels | Cmax [5, 6]: 1470 ng/mL | Tmax [5, 6]: 1 h | AUC [5, 6]: 13300 ng·h/mL | Cmax [5, 7]: 738 ng/mL | Tmax [5, 7]: 2.3 h | AUC [5, 7]: 10800 ng·h/mL | Cmax [5, 8]: 1090 ng/mL | Tmax [5, 8]: 2.8 h | AUC [5, 8]: 10800 ng·h/mL | Cmax [5, 9]: 1490 ng/mL | Tmax [5, 9]: 3 h | AUC ([5]; 350 mg, 350 once daily, 5/2, steady state (Day 12/11)): 10300 to 15800 ng·h/mL | Cmax [5, 10]: 840 ng/mL | Tmax [5, 10]: 2.2 h | AUC [5, 10]: 7140 ng·h/mL
SMILES: C=CCn1c(=O)c2cnc(Nc3ccc(N4CCN(C)CC4)cc3)nc2n1-c1ccc2c(n1)[C@@](O)(CC)CC2 [Azenosertib, (R)-2-allyl-1-(7-ethyl-7-hydroxy-6,7-dihydro-5H-cyclopenta[b]pyridin-2-yl)-6-((4-(4-methylpiperazin-1-yl)phenyl)amino)-1,2-dihydro-3H-pyrazolo[3,4-d]pyrimidin-3-one]
tumor growth inhibition (TGI) [1]: 52.6% | tumor volume, intermittent vs continuous dosing ([2]; about 100 mg/kg 3 cycles 4/3 and 3/4 vs continuous 60 mg/kg, about 24 days): more efficacious | efficacy of 4 days on/3 days off vs 3 days on/4 days off ([2]; about 100 mg/kg, 3 cycles): comparable in efficacy | change in tumor volume, intermittent vs continuous dosing [3]: more efficacious; also recorded: higher efficacy than continuous dosing in reducing tumor volume | tumor volume, intermittent vs continuous dosing ([4]; 100 mg/kg 4 cycles 4 days on/3 days off vs continuous 60 mg/kg, 25 days): more efficacious; also recorded: slightly more efficacy than lower continuous dosing | tumor volume, intermittent vs continuous dosing ([4]; 56 or 112 mg/kg 4 cycles 5 days on/2 days off vs continuous 40 or 80 mg/kg, same total cumulative dose, 28 days): more efficacious; also recorded: more efficacy in reducing tumor volume than lower continuous dosing | tolerability (body weight) ([4]; all doses (40, 80 mg/kg continuous; 56, 112 mg/kg 5/2)): well tolerated | exposure, intermittent vs continuous dose ([5]; 350 mg once daily (or 175 mg twice daily), 5/2 vs continuous): higher for intermittent vs. continuous; also recorded: comparable or better exposure
